From paper PMC10229614 (Scientific Reports, 2023)
Read-outs that look alike come from different tables or passages of the source.

Assays:
aromatase (CYP19A1) = target: T1, aromatase (CYP19A1) (Homo sapiens, UniProt P11511); test: Aromatase inhibition assay (Corning Supersomes CYP19/MFC kit, fluorescent); format: biochemical; conditions: 37 °C, mean ± SD of at least three measurements
T1 construct: purchased Corning (Corning, NY)
T1 sequence (P11511 1-503): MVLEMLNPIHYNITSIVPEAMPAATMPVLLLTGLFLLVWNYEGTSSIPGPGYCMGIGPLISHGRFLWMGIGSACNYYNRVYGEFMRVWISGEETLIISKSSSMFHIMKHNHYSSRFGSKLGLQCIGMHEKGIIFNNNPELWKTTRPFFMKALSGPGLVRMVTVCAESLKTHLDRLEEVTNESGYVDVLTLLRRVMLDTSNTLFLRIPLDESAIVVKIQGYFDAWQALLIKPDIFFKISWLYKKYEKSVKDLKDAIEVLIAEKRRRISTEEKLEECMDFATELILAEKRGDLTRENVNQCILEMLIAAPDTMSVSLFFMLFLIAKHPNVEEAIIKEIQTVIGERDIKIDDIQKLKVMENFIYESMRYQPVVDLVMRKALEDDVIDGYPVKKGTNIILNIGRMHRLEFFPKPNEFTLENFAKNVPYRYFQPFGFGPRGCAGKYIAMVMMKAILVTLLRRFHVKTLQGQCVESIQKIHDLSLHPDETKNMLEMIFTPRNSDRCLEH
Procedure: Formation of a fluorescent metabolite was measured at Ex/Em of 409 nm/530 nm. Data represents mean ± SD of at least three independent measurements.
To evaluate the aromatase inhibitory potential of hops, licorice species, and their bioactive compounds, the Corning® Supersomes™ P450 Inhibition Kit CYP19/MFC high throughput inhibition assay was used. The protocol of the kit, which is based on the effects of the tested agents on the conversion of the fluorescent substrate, 7-methoxy-4-trifluoromethyl coumarin (MFC) to 7-hydroxy-4-trifluoromethyl coumarin (HFC) by aromatase, was followed. […] Then the enzyme/substrate mixture containing the aromatase enzyme and MFC were added to the pre-incubated mixture and were incubated at 37 °C for 30 min before stopping the enzymatic reaction with the stop solution. The fluorescent signal was evaluated at the Excitation/Emission of 409 nm/530 nm and was corrected for the potential innate fluorescence of the tested extracts and compounds.

ERα = conditions: read-out: ERα binding (IC50), cited from earlier work
ERβ = conditions: read-out: ERβ binding (IC50), cited from earlier work
CYP19A1 expression = test: qPCR of CYP19A1 mRNA in high-risk postmenopausal breast tissue microstructures; format: cell-based, human; conditions: 24 h, vs vehicle; for Suppression of baseline CYP19A1 expression: 5 µM, six subjects' tissues
Procedure: Subsequently, RNA extraction and qPCR of CYP19A1 was performed. The expression of CYP19A1 mRNA was calculated relative to the housekeeping gene RPLP0 and normalized to DMSO control.
The unaffected contralateral breast tissues of postmenopausal women who underwent bilateral mastectomy due to incident unilateral breast cancer were obtained while fresh and diced to approximately 5 mm pieces before digesting at 37 °C with 2% collagenase I in F12-K nutrient mix (Kaighn’s) medium, overnight. After the completion of digestion, the tissue was centrifuged at 250×g for 5 min and the supernatant was discarded. The pellet was washed with phosphate buffered saline and was mixed and cultured in MammoCult media supplemented with 0.2% heparin and 0.5% hydrocortisone. After 24 h incubation at 37 °C the treatments were mixed with fresh MammoCult media and added to the microstructures.
After 24 h incubation with the treatments, the microstructure pellet of the first 6 donors’ samples were prepared separately (not pooled) and washed with HBSS. Trizol was added to each pellet and the protocol of Direct-Zol RNA prep kit was used to extract RNA. The protocol included a step of DNAse I treatment for removing DNA contamination of the RNA preparations. RNA was eluted in nuclease free water and the concentration was measured using Nano Drop 2000 spectrophotometry (Thermo Fisher). The Integrated DNA Technologies (IDT) protocol, pre-made aromatase (CYP19A1) gene primer, and the pre-made housekeeping RPLP0 gene primer was used to perform qPCR using QuantStudio 12 K Flex Real Time PCR system.

uterus [1] = tested on: uterus; design: method as in PMID 18619951, PMID 34848279; conditions: cited from earlier work
uterus [2] = test: In vivo uterotrophic study in immature female Sprague-Dawley rats; design: species or system rat; conditions: 3 days
Procedure: Animals were sacrificed on day 4 and their uterine weights were measured.
We used the OECD guidelines and animal model for testing uterotrophic or estrogenic activity of compounds[49]. […] The animals were treated for 3 days every 24 h. Animal weight and food intake were evaluated daily. Animals were sacrificed by CO2 asphyxiation. Uterus was collected, trimmed of fat and connective tissue, and weighted.

MCF-7 cells = test: MCF-7 cell proliferation by IncuCyte live cell imaging; format: cell-based, human
Procedure: Cell proliferation was monitored using live cell imaging by IncuCyte. Data represents the mean of at least two independent observations ± SEM.
MCF-7 cells were seeded at density of 2.5 × 10^3 cells/well in RPMI media supplemented with 10% FBS. Cells were placed in IncuCyte for live cell imaging every 6 h, and were monitored. […] Treatments were repeated every 48 h until day 6 and cells were monitored until day 12. Data was analyzed using Zoom software to quantify the images and were plotted as mean ± SD of at least two independent measurements.

[3] = ref J Agric Food Chem. 2020, 68: 10651–10663

**Q.** With `CC(C)=CCc1c(O)cc2c(c1O)C(=O)C[C@@H](c1ccc(O)cc1)O2` [6-PN, 6-prenylnaringenin] as the compound, how does the IC50 (aromatase (CYP19A1)) read?
**A.** Its IC50 is 7.4 ± 0.3 µM.

**Q.** Which results are given for `CC(C)=CCc1c(O)cc(O)c2c(=O)cc(-c3ccc(O)cc3)oc12` [8-PA, 8-prenylapigenin]?
**A.** IC50 (aromatase (CYP19A1)): 0.59 ± 0.08 µM; IC50 (ERα; [3]): 100 ± 50 nM; IC50 (ERβ; [3]): 30 ± 10 nM

**Q.** Which IC50 (aromatase (CYP19A1)) does the source give for `CC(C)=CCc1c(O)cc(O)c2c1O[C@H](c1ccc(O)cc1)CC2=O` [8-PN, 8-prenylnaringenin] here?
**A.** The IC50 was 0.05 ± 0.004 µM.

**Q.** What about the “Suppression of CYP19A1 expression” value (CYP19A1 expression; 10 µM, 5 subjects' tissues) of the same compound?
**A.** The value was 40%.

**Q.** And the Uterine growth (uterus [1])?
**A.** The Uterine growth was “enhance uterine growth”.

**Q.** With `C[C@]12CC[C@@H]3c4ccc(OC(=O)c5ccccc5)cc4CC[C@H]3[C@@H]1CC[C@@H]2O` [Estradiol benzoate, 17β-estradiol benzoate, reference compound] as the compound, how does the “Uterine weight vs vehicle” value (uterus [2]; 1.6 µg/kg.day s.c.) read?
**A.** The value was “significantly enhanced uterine weight (nearly doubled)”.

**Q.** Which IC50 (aromatase (CYP19A1)) does the source give for `C=CC(C)(C)c1cc(/C=C/C(=O)c2ccc(O)cc2)c(OC)cc1O` [LicA, licochalcone A] here?
**A.** Its IC50 is 3.2 ± 0.1 µM.

**Q.** What about the “Suppression of baseline CYP19A1 expression” value (CYP19A1 expression) of the same compound?
**A.** The value was ~40%.

**Q.** With `O=C(/C=C/c1ccc(O)cc1)c1ccc(O)cc1O` [LigC, isoliquiritigenin] as the compound, how does the IC50 (aromatase (CYP19A1)) read?
**A.** The IC50 was 4 ± 0.3 µM.

**Q.** And the IC50 (ERα; ref PLoS One, 2013, 8: e67947)?
**A.** The IC50 was 16000 ± 1000 nM.

**Q.** And the IC50 (ERβ; ref PLoS One, 2013, 8: e67947)?
**A.** The IC50 was 7800 ± 100 nM.

**Q.** Which IC50 (aromatase (CYP19A1)) does the source give for `O=C1C[C@@H](c2ccc(O)cc2)Oc2cc(O)ccc21` [LigF, liquiritigenin] here?
**A.** Its IC50 is 0.43 ± 0.02 µM.

**Q.** What about the “Suppression of baseline CYP19A1 expression” value (CYP19A1 expression) of the same compound?
**A.** Its value is 25%.

**Q.** What about the “Uterine growth vs vehicle” value (uterus [2]; 50 mg/kg.day s.c.) of the same compound?
**A.** Its value is “did not enhance uterine growth, significantly”.

**Q.** What about the E2-induced uterine growth (uterus [2]; 150 mg/kg.day s.c. co-administered with estradiol benzoate 1.6 µg/kg.day) of the same compound?
**A.** Its E2-induced uterine growth is “suppressed E2-induced uterine growth, significantly”.

**Q.** What about the “Uterine growth vs vehicle” value (uterus [2]; 150 mg/kg.day s.c.) of the same compound?
**A.** Its value is “did not enhance uterine growth, significantly”.

**Q.** What about the “Cell proliferation after treatment halted” value (MCF-7 cells; 20 µM, treatment halted after third dose (six days)) of the same compound?
**A.** Its value is “reached full confluency on day 10”.

**Q.** And the “Cell proliferation after treatment halted” value (MCF-7 cells; 40 µM, last dose on day 6)?
**A.** Its value is “maintained a significantly reduced proliferation rate until the end of the study (day 11)”.

**Q.** And the Cytotoxicity (MCF-7 cells; MCF-7 cells exposed to LigF)?
**A.** The Cytotoxicity was “did not detect cytotoxicity”.

**Q.** What about the Cell proliferation (MCF-7 cells; repeated doses of 20 µM every 48 h) of the same compound?
**A.** Its Cell proliferation is “profound suppression of proliferation”.

**Q.** What about the Cell proliferation (MCF-7 cells; repeated doses of 40 µM every 48 h) of the same compound?
**A.** Its Cell proliferation is “profound suppression of proliferation”.

**Q.** And the “Cell proliferation after a single dose” value (MCF-7 cells; single dose)?
**A.** Its value is “clear reduction in cell proliferation for up to 48 h”.

**Q.** And the IC50 (ERα; ref PLoS One, 2013, 8: e67947)?
**A.** Its IC50 is > 200000 nM.

**Q.** For `COc1cc(O)c(CC=C(C)C)c(O)c1C(=O)/C=C/c1ccc(O)cc1` [XH, xanthohumol], which IC50 (aromatase (CYP19A1)) is on record?
**A.** The IC50 was 4.3 ± 0.6 µM.
